Experimental data as given in patent US10104882B2, “Methods and compositions for preventing and treating electrophile-mediated toxicities” (priority 2013, dated 2018).
“Also recorded” adds a separate entry of the source. Read-outs that look alike come from different tables or passages of the source.

What was measured:
[1] = Electrophile concentration-dependent loss of GSH sulfhydryl groups (in chemico); type: biochemical; parameters: Log IC50: unit not given here; conditions: for Log IC50: logarithmic value, electrophile concentration that causes 50% loss of the GSH sulfhydryl group
From the text: (§1) However, acrolein and other electrophiles used in this research are α,β-unsaturated carbonyls, whereas NAPQI and pBQ are quinone derivatives. […] Although both compounds are relatively acidic (low pKa values), thiol protection is limited since the corresponding adduct reactions involving the enolates of these acids are likely to be reversible. […] 2-ACP was the most protective 1,3-dicarbonyl compound tested in this and other studies^54 and was, therefore, the focus of subsequent research. […] 2-ACP (50 μM) was also effective at protecting thiol loss induced by pBQ, the degradation product of NAPQI (data not shown). […] These electrophiles target nucleophilic sulfhydryl groups that play critical roles in protein function and cellular redox balance.

[2] = in chemico; cited from earlier work
[3] = tested on: MN9D cells; conditions: cited from earlier work; for protection from acrolein-induced cell loss: pre-incubation
[4] = Ionization parameters (pKa, % anion); type: physicochemical; conditions: for relative enolate concentration in solution: pH 7 / neutral conditions; for fraction present as nucleophilic enolate/thiolate anion: physiological pH (7.4)
[5] = tested on: Rat striatal synaptosomes; conditions: acrolein 1-1000 μM with cytoprotectant 500 μM; cited from earlier work
[6] = cited from earlier work; for thiol protection against acrolein-induced thiol loss: pH 9.0; for effect on rate of acrolein-induced sulfhydryl (thiol) loss: physiological conditions (pH 7.4)
[7] = tested on: MN9D cells; conditions: cited from earlier work
[8] = Prevention of NAPQI-induced GSH sulfhydryl loss by 1,3-dicarbonyl compounds (in chemico); type: biochemical; conditions: for prevention of NAPQI-induced thiol loss: equimolar concentrations (50 μM), pH 7.4
From the text: FIG. 3. […] Numbers in parentheses are respective IC50 values.
FIG. 4. […] Numbers in parentheses are respective IC50 values.
as §1

[9] = tested on: rat liver; experiment: Acute ischemia-reperfusion injury of rat liver; type: in vivo, rats
Experimental: FIG. 9. Effect of 2-ACP on liver ischemia. 2-ACP (2.40 mmol/kg) or vehicle was injected i.p. 10 mins before clamping the portal vasculature for 45 mins. At the completion of the Ischemic phase, clamps were removed and the liver was reperfused for 180 mins. Following reperfusion, blood samples were removed for analysis of liver enzymes (ALT, AST) and LDH in plasma. Joining lines indicate statistically significant differences in treatment groups at ***P<0.001 level of significance.
FIG. 10. Effect of 2-ACP on liver reperfusion. 2-ACP (2.40 mmol/kg) or vehicle was injected i.p. 10 mins before restoration of hepatic circulation (reperfusion phase). At the completion of reperfusion, blood samples were removed for analysis of liver enzymes (ALT, AST) and LDH (a general enzyme indicator of tissue injury) in plasma. Joining lines indicate statistically significant differences in treatment groups at ***P<0.001 level of significance.
FIG. 11. […] At the completion of reperfusion, blood samples were removed for analysis of liver enzymes (ALT, AST) and LDH (a general enzyme indicator of tissue injury) in plasma. Joining lines indicate statistically significant differences in treatment groups at ***P<0.001 level of significance.
IR injury is the pathophysiological basis for stroke, myocardial infarction and other organ failure. It is also an underlying cause of allograft rejection following tissue transplantation. To investigate the possibility that 2-ACP and other nucleophilic dicarbonyl derivatives might be useful in preventing IR-mediated organ damage, rats were anesthetized and I/R was induced by clamping the portal vein and hepatic artery using commercially available microclips placed at the porta hepatis. The ischemic state was maintained for 45 mins, which affected approximately 70% of the liver mass. Following removal of the microclamps, hepatic reperfusion was maintained for 180 min. Animals were then sacrificed and plasma samples were taken for subsequent analysis of lactate dehydrogenase (LDH; a general enzyme indicator of cell injury) and liver enzymes (AST and ALT). […] A sham group (laparotomy only) provided baseline data for the appearance of liver enzyme in plasma. […] This level of hepatocyte leakage indicates substantial irreversible cell injury. […] Thus, prior 2-ACP administration is able to diminish the pathophysiological disposition of the ischemic phase. Further, amelioration of the ischemic phase truncates subsequent culmination of hepatocyte injury during reperfusion. To determine whether hepatoprotection was phase-specific and dose-dependent, 2-ACP (1.20-2.40 mmol/kg) was injected i.p. 10 mins prior to the restoration of hepatic circulation (reperfusion phase).

[10] = tested on: male C57 BL mice; experiment: Mouse model of oral acetaminophen (APAP) overdose hepatotoxicity/lethality; type: in vivo; conditions: for changes in hepatic parameters, compound alone: no APAP
Experimental: FIG. 7A-7B. […] Hepatoprotectants were administered 20 mins before (−20), 20 mins after (+20) or 60 mins after (+60) APAP intoxication.
A separate group received the PEG400 vehicle 20 mins prior to AAP. […] Vehicle control mice (n=10) received sequential injections of PEG400 (i.p. followed by oral). At several times post-AAP administration (2, 6, 24, 48 and 168 hrs), groups of mice were anesthetized in a carbon dioxide chamber and heparinized blood samples were collected. Samples were centrifuged and resulting serum was retained for analyses (see below). Livers were also excised, weighed and tissue samples were collected for histopathological evaluation. Remaining tissue was snap frozen in liquid nitrogen. Hepatotoxicity was determined by quantification of serum alanine aminotransferase (ALT) and aspartate aminotransferase (AST) using colorimetric assays. Serum lactate dehydrogenase (LDH) was also measured as an index of generalized AAP-induced organ toxicity. To evaluate the extent of cellular oxidative stress in liver homogenates, the unsaturated aldehyde by-products of lipid peroxidation, HNE and malondialdhyde (MDA), were determined according to a modification of the Gerard-Monnier et al. method^27. In addition, soluble thiol contents were measured in homogenates according to LoPachin et al.^44.

[11] = Protection against pBQ-induced thiol loss (in chemico); type: biochemical; conditions: 50 μM
From the text: as §1

[12] = i.p. 2.40 mmol/kg 10 mins before ischemia (45 min), reperfusion 180 min
[13] = i.p. 10 mins before reperfusion, 2-ACP 1.20-2.40 mmol/kg, equimolar NAC

## CC(=O)N=C1C=CC(=O)C=C1 [NAPQI, N-acetyl-p-benzoquinone imine]
[1]
  Log IC50: 0.92
[1]; read-out: IC50 for NAPQI-induced GSH loss, NAPQI alone, NAPQI 2-128 μM, no protectant
  IC50: 9.1 µM
[2]
  second order rate constant for reaction with cysteine sulfhydryl groups: 32000 M⁻¹ s⁻¹

## C=CC=O [Acrolein, acrolein]
[3]; read-out: LC50 (acrolein concentration producing 50% cell lethality), acrolein 50-150 μM
  CC50: 96 µM
[1]
  Log IC50: 1.72

## CCN1C(=O)C=CC1=O [NEM, N-ethylmaleimide]
[1]
  Log IC50: 1.23

## CCOC(=O)CC(=O)OCC [DEM, diethyl malonate]
[4]
  relative enolate concentration in solution: < 0.1%
[3]
  protection from acrolein-induced cell loss: neither DEM nor HD was effective
[5]
  change in acrolein IC50 for synaptosomal DA transport inhibition: neither DEM nor HD significantly affected the acrolein IC50
[6]
  thiol protection against acrolein-induced thiol loss: significantly increased
  effect on rate of acrolein-induced sulfhydryl (thiol) loss: Neither diethyl malonate (DEM; a β-diester) nor 2,5-hexanedione (HD), a γ or 1,4-diketone, affected the rate of sulfhydryl loss

## CC(=O)CC(=O)C(F)(F)F [TFPD, 1,1,1-trifluoro-2,4-pentanedione]
[4]
  relative enolate concentration in solution: 99%
[4]; read-out: pKa
  pKa: 4.7
[3]
  protection from acrolein-induced cell loss: moderately protective
[5]
  change in acrolein IC50 for synaptosomal DA transport inhibition: relatively ineffective
[7]
  fold protection against H2O2-induced cytotoxicity: 3 fold
[6]
  thiol protection against acrolein-induced thiol loss: did not increase
  effect on rate of acrolein-induced sulfhydryl (thiol) loss: some thiol protection

## CC(=O)N[C@@H](CS)C(=O)O [NAC, N-acetylcysteine]
[4]; Table 1, read-out: pKa
  pKa: 9.5
[4]
  % Anion (pH = 7.4): 0.8%
[4]; read-out: pKa
  pKa: 9.6
[3]
  protection from acrolein-induced cell loss: completely prevented
[8]
  prevention of NAPQI-induced thiol loss: only minimal protection
[9]; [12]
  plasma liver enzymes (ALT, AST) and LDH after I/R: did not prevent I/R liver injury
[9]; [13]
  plasma liver enzymes (ALT, AST) and LDH after I/R: did not prevent I/R liver injury
[5]
  change in acrolein IC50 for synaptosomal DA transport inhibition: more modest
[7]
  protection against H2O2-induced cell death: significantly less efficacious
[10]
  changes in hepatic parameters, compound alone: neither NAC nor ACP alone caused significant changes

## O=C1C=CC(=O)C=C1 [pBQ, p-benzoquinone]
[1]
  Log IC50: 1.06

## CC1(C)CC(=O)CC(=O)C1 [DMD, dimedone]
[4]
  pKa: 5.3
  fraction present as nucleophilic enolate/thiolate anion: 99%
[8]
  prevention of NAPQI-induced thiol loss: ineffective
[5]
  change in acrolein IC50 for synaptosomal DA transport inhibition: more modest
[6]
  effect on rate of acrolein-induced sulfhydryl (thiol) loss: substantially slowed

## CC(=O)C1CCCC1=O (stereo not shown) [2-ACP, 2-acetylcyclopentanone]
[4]
  % Anion (pH = 7.4): 28.5%
  fraction present as nucleophilic enolate/thiolate anion: ~30%
[11]
  protection of thiol loss induced by pBQ: effective
[3]
  protection from acrolein-induced cell loss: completely prevented
[8]; 2-ACP 25-200 μM, NAPQI 2-128 μM
  thiol protection against NAPQI over concentration range: provides thiol protection over a broad range of concentrations
[8]
  prevention of NAPQI-induced thiol loss: three-fold increase in the respective IC50 value
[9]; [12]
  plasma liver enzymes (ALT, AST) and LDH after I/R: considerable reductions in the plasma appearance of liver enzymes
[9]; [13]
  plasma liver enzymes (ALT, AST) and LDH after I/R: substantial hepatocyte dose-dependent protection
[5]
  change in acrolein IC50 for synaptosomal DA transport inhibition: largest increases
[7]
  protection against H2O2-induced cell death: completely prevented cell death
[6]
  effect on rate of acrolein-induced sulfhydryl (thiol) loss: completely prevented
[10]
  changes in hepatic parameters, compound alone: neither NAC nor ACP alone caused significant changes
[10]; i.p. 2.40 mmol/kg, 20 min after (+20) APAP
  protection from APAP-induced lethality (survival): complete protection
[10]; i.p. 2.40 mmol/kg, 20 min before oral APAP 500 mg/kg, 7 day period
  protection from APAP-induced lethality (survival): completely prevented APAP lethality; also recorded: complete protection
[10]; i.p. 2.40 mmol/kg, 60 min after (+60) APAP
  protection from APAP-induced lethality (survival): ineffective
[10]; i.p. pretreatment, oral APAP
  biochemical indices of hepatocyte death (plasma ALT, AST, LDH) and oxidative stress (liver thiol loss, unsaturated aldehyde content): prevented APAP-induced liver cell death
  histopathology: liver centrilobular necrosis: prevented the liver centrilobular necrosis
[10]; i.p. pretreatment, 2-ACP 0.80-2.40 mmol/kg, NAC 4.80-7.20 mmol/kg
  dose-dependency of protection from APAP-induced lethality: dose-dependent, although it occurred over a narrow dose-range
[10]; oral 4.80 mmol/kg
  oral hepatoprotection at increased dose: improved oral 2-ACP hepatoprotection
[10]; oral gavage 2.40 mmol/kg, 20 min before oral APAP
  protection from APAP-induced lethality (survival): modest improvements in APAP survival rate
[10]; oral, HEPES buffer pH 9.0
  oral hepatoprotection with buffered gavage solution: improved oral 2-ACP hepatoprotection

## COc1cc(/C=C/C(=O)CC(=O)/C=C/c2ccc(O)c(OC)c2)ccc1O [Curcumin, curcumin]
[4]; Table 1, read-out: pKa
  pKa: 7.8
[4]
  % Anion (pH = 7.4): 28.5%

## CC(=O)CCC(C)=O [HD, 2,5-hexanedione]
[3]
  protection from acrolein-induced cell loss: neither DEM nor HD was effective
[5]
  change in acrolein IC50 for synaptosomal DA transport inhibition: neither DEM nor HD significantly affected the acrolein IC50
[7]
  protection against H2O2-induced cell death: ineffective
[6]
  effect on rate of acrolein-induced sulfhydryl (thiol) loss: Neither diethyl malonate (DEM; a β-diester) nor 2,5-hexanedione (HD), a γ or 1,4-diketone, affected the rate of sulfhydryl loss

## CC(=O)Nc1ccc(O)cc1 [APAP, N-acetyl-p-aminophenol]
[10]; oral 500 mg/kg, mice, within 72 hrs
  lethality of oral APAP overdose: ~90%

## N[C@@H](CCC(=O)N[C@@H](CS)C(=O)NCC(=O)O)C(=O)O [GSH, glutathione]
[4]; Table 1, read-out: pKa
  pKa: 8.6
[4]
  % Anion (pH = 7.4): 5.9%

## CC(C)(C)C1=CC(=O)C=CC1=O [tBQ, tert-butylquinone]
[1]
  Log IC50: 1.24

## O=C1CCC(=O)C1 [CPD, 1,3-cyclopenanedione]
[8]
  prevention of NAPQI-induced thiol loss: minimal thiol protection
[5]
  change in acrolein IC50 for synaptosomal DA transport inhibition: relatively ineffective
[7]
  protection against H2O2-induced cell death: ineffective

## CC(=O)CC(C)=O [AcAc, acetylacetone]
[4]
  pKa: 9.0
[3]
  protection from acrolein-induced cell loss: moderately protective
[8]
  prevention of NAPQI-induced thiol loss: minimal thiol protection
[6]
  thiol protection against acrolein-induced thiol loss: virtually complete
  effect on rate of acrolein-induced sulfhydryl (thiol) loss: substantially slowed

## CC1(C)OC(=O)CC(=O)O1 [MA, Meldrum's acid]
[8]
  prevention of NAPQI-induced thiol loss: ineffective
[5]
  change in acrolein IC50 for synaptosomal DA transport inhibition: more modest
[6]
  effect on rate of acrolein-induced sulfhydryl (thiol) loss: substantially slowed
